The values that follow come from patent US20210293825A1, “METHODS FOR PRECISION THERAPEUTIC TARGETING OF HUMAN CANCER CELL MOTILITY AND KITS THEREOF” (UNITED STATES GOVERNMENT AS REPRESENTED BY THE DEPARTMENT …, priority 2018, published 2021).

The subject of one data set is human prostate cells. Kind of data set: Three day cell growth inhibition, human prostate cells. The data set is classed as cell-based. The following applies: 3 days growth inhibition. The text has this: FIG. 1a is a schematic flow of probe synthesis and development strategy. […] Values are mean±SEM of a single experiment in replicates of N=4, with similar findings in multiple separate experiments (also N=4). […] Values are mean±SEM of a single experiment in replicates of N=24, with similar findings in a separate experiment (also N=24). *Denotes Student's t test P value <0.05, compared to controls. […] Values are mean±SEM from N>2 separate experiments, each in replicates of N=3. […] Values are the mean±SD number of total, CFU-GM, CFU-GEMM or BFU-E colonies at 14 days after treatment with KBU2046, from a single experiment in replicates of N=2. […] Values are the mean±SD of a single experiment, with similar results seen in a separate experiment, both in replicates of N=2.
Assays were in replicates of N=3, and were repeated.

The target of data set [1] is T1, HSP90β/CDC37 heterocomplexes (Homo sapiens, UniProt P08238+Q16543).
T1 construct: made in house; host or cells: E. coli (Rosetta BL-21 for HSP90B, BL-21 DE-3 for CDC37)
T1 sequence (P08238 whole entry): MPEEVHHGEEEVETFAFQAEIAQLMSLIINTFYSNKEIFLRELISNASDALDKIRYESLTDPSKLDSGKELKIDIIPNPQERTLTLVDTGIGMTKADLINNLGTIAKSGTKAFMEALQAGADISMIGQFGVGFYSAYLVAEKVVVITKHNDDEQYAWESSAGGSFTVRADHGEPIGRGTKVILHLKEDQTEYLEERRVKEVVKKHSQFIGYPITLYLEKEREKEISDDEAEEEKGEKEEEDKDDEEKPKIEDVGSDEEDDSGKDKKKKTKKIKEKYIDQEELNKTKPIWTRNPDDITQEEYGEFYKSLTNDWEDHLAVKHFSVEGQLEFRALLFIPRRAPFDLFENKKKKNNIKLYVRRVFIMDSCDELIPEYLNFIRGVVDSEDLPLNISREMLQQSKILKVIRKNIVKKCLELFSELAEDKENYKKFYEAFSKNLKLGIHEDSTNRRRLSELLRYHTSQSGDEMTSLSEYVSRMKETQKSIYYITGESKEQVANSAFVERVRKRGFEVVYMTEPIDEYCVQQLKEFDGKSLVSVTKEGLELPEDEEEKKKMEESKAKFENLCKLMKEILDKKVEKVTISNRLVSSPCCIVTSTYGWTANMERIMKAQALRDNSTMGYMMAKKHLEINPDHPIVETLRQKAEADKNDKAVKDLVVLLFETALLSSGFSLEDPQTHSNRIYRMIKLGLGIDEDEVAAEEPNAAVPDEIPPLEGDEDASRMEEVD
T1 sequence (Q16543 whole entry): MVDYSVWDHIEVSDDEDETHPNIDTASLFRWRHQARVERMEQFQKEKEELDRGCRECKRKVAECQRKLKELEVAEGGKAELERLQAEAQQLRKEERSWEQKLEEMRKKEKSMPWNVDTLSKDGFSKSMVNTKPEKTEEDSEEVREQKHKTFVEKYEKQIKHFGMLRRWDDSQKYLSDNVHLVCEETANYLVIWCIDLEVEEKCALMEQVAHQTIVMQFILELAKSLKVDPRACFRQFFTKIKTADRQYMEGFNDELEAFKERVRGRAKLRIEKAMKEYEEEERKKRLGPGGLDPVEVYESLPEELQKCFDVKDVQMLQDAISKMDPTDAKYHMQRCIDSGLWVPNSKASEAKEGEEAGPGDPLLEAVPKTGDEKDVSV
Kind of data set: DARTS assay with HSP90β and CDC37 combined. It is filed as binding. As for the experimental part: Equimolar amounts of HSP90β and CDC37 protein were pre-incubated with KBU2046, and resultant thermolysin reaction products were detected by silver stain following SDS-PAGE.
DARTS provides a sensitive measure of ligand-induced changes in protein structure and dynamics by measuring the ability of a ligand to protect its target from protease digestion (Lomenick, B. et al., Proc Natl Acad Sci USA 106, 21984-9 (2009)). […] The intensity of the CDC37 band increased, that of the HSP90β degradation product decreased, and both effects were statistically significant, concentration-dependent and were evident at 10 nM. […] Further, these findings also indicate that KBU2046 is not acting as a classical HSP90 inhibitor.
Biophysical and Biochemical Binding Assays. Fluorescent thermal shift (Krishna, S. N. et al., PLoS One 8, e81504 (2013)), isothermal titration calorimetry (Chavez, J. D. et al., Mol Cell Proteomics 12, 1451-67 (2013)), and biolayer interferometry assays (Makowska-Grzyska, M. et al., Biochemistry 51, 6148-63 (2012)), were performed using MEK4EE (37-399, S257E, T261E) cloned into pMCSG7 and KRX Competent E. coli cells (Promega Inc.) and full-length HSP90B and CDC37 vectors and Rosetta BL-21 and BL-21 DE-3 competent E. coli cells, respectively. […]

In the case of `O=C1c2ccccc2OCC1c1ccc(F)cc1` (racemic) [KBU2046, (±)-3(4-fluorophenyl)chroman-4-one], in the data set on human prostate cells, the “toxicity to human prostate cells” value is listed as “not toxic”. The “concentration at which effects on CDC37 and HSP90β bands were evident” value in data set [1] (concentration-dependent) stood at 10 nM. Besides, in data set [1] (equimolar HSP90β and CDC37), the “protection from thermolysin digestion” value is reported as “protected both proteins from digestion”.
